Values after ≈ are worked out from the molar mass of the structure shown.
Tested on: Pasteurella multocida
Experiment: minimum inhibitory concentration (MIC)
Protocol: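 Broth microdilution MIC (Sensititre BOPO7F bovine plate, CLSI methods) of 19 antimicrobials against field isolates of P. multocida, M. haemolytica, H. somni (deep nasopharyngeal swabs) and E. coli, Enterococcus spp. (rectal swabs) from weaned dairy heifers. Incubation 16-24 h at 35 C. MIC is the lowest concentration preventing visible growth. Values with <= or > lie at the tested range limits. Trimethoprim-sulfamethoxazole is given as the trimethoprim component of a 1:19 mixture.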

NC[C@@H]1O[C@H](O[C@H]2[C@@H](O)[C@H](O[C@@H]3[C@@H](O)[C@H](N)C[C@H](N)[C@H]3O[C@H]3O[C@H](CN)[C@@H](O)[C@H](O)[C@H]3N)O[C@@H]2CO)[C@H](N)[C@@H](O)[C@@H]1O [Neomycin]
Conditions	minimum inhibitory concentration [µg/mL]
isolate (source animal id): 10	> 32
isolate (source animal id): 11	> 32
isolate (source animal id): 12	> 32
isolate (source animal id): 19	> 32
isolate (source animal id): 23	> 32
isolate (source animal id): 26	> 32
isolate (source animal id): 98	> 32
isolate (source animal id): 104	> 32
isolate (source animal id): 115	32 (≈ 52.1 µM)
isolate (source animal id): 117	> 32
isolate (source animal id): 118	> 32
isolate (source animal id): 121	> 32
isolate (source animal id): 124	> 32
isolate (source animal id): 125	> 32
isolate (source animal id): 128	> 32
isolate (source animal id): 131	> 32
isolate (source animal id): 135	> 32
isolate (source animal id): 136	> 32
isolate (source animal id): 140	> 32
isolate (source animal id): 144	> 32
isolate (source animal id): 146	> 32
isolate (source animal id): 150	> 32
isolate (source animal id): 151	32 (≈ 52.1 µM)
isolate (source animal id): 153	> 32
isolate (source animal id): 155	> 32
isolate (source animal id): 157	> 32
isolate (source animal id): 160	32 (≈ 52.1 µM)
isolate (source animal id): 164	32 (≈ 52.1 µM)
isolate (source animal id): 165	32 (≈ 52.1 µM)
isolate (source animal id): 167	> 32
isolate (source animal id): 168	> 32
isolate (source animal id): 169	> 32
isolate (source animal id): 170	> 32
isolate (source animal id): 171	> 32
isolate (source animal id): 172	> 32
isolate (source animal id): 173	> 32
isolate (source animal id): 174	> 32
isolate (source animal id): 175	> 32
isolate (source animal id): 176	> 32
isolate (source animal id): 177	16 (≈ 26 µM)
isolate (source animal id): 178	> 32
isolate (source animal id): 179	> 32
isolate (source animal id): 182	> 32
isolate (source animal id): 192	> 32
isolate (source animal id): 193	16 (≈ 26 µM)
isolate (source animal id): 195	32 (≈ 52.1 µM)
isolate (source animal id): 196	8 (≈ 13 µM)
isolate (source animal id): 197	> 32
isolate (source animal id): 198	> 32
isolate (source animal id): 199	> 32
isolate (source animal id): 200	> 32
isolate (source animal id): 201	> 32
isolate (source animal id): 203	32 (≈ 52.1 µM)
isolate (source animal id): 204	> 32
isolate (source animal id): 205	> 32
isolate (source animal id): 206	> 32
isolate (source animal id): 207	> 32
isolate (source animal id): 208	> 32
isolate (source animal id): 209	32 (≈ 52.1 µM)
isolate (source animal id): 210	> 32
isolate (source animal id): 213	> 32
isolate (source animal id): 216	> 32
isolate (source animal id): 223	> 32
isolate (source animal id): 227	> 32
isolate (source animal id): 229	> 32
isolate (source animal id): 233	> 32
isolate (source animal id): 234	> 32
isolate (source animal id): 237	> 32
isolate (source animal id): 241	> 32
isolate (source animal id): 245	> 32
isolate (source animal id): 247	> 32
isolate (source animal id): 250	> 32
isolate (source animal id): 254	> 32
isolate (source animal id): 255	> 32
isolate (source animal id): 258	> 32
isolate (source animal id): 261	> 32
isolate (source animal id): 262	> 32
isolate (source animal id): 269	> 32
isolate (source animal id): 270	> 32
isolate (source animal id): 274	> 32
isolate (source animal id): 275	> 32
isolate (source animal id): 276	> 32
isolate (source animal id): 277	> 32
isolate (source animal id): 278	> 32
isolate (source animal id): 279	> 32
isolate (source animal id): 280	> 32
isolate (source animal id): 284	> 32
isolate (source animal id): 285	> 32
isolate (source animal id): 287	> 32
isolate (source animal id): 290	> 32
isolate (source animal id): 294	> 32
isolate (source animal id): 295	> 32
isolate (source animal id): 296	> 32
isolate (source animal id): 307	> 32
isolate (source animal id): 310	> 32
isolate (source animal id): 311	> 32
isolate (source animal id): 312	> 32
isolate (source animal id): 313	> 32
isolate (source animal id): 315	> 32
isolate (source animal id): 316	> 32

CS(=O)(=O)c1ccc([C@@H](O)[C@@H](CF)NC(=O)C(Cl)Cl)cc1 [Florfenicol]
Conditions	minimum inhibitory concentration [µg/mL]
isolate (source animal id): 10	8 (≈ 22.3 µM)
isolate (source animal id): 11	8 (≈ 22.3 µM)
isolate (source animal id): 12	8 (≈ 22.3 µM)
isolate (source animal id): 19	8 (≈ 22.3 µM)
isolate (source animal id): 23	8 (≈ 22.3 µM)
isolate (source animal id): 26	8 (≈ 22.3 µM)
isolate (source animal id): 98	8 (≈ 22.3 µM)
isolate (source animal id): 104	0.5 (≈ 1.4 µM)
isolate (source animal id): 115	8 (≈ 22.3 µM)
isolate (source animal id): 117	0.5 (≈ 1.4 µM)
isolate (source animal id): 118	8 (≈ 22.3 µM)
isolate (source animal id): 121	8 (≈ 22.3 µM)
isolate (source animal id): 124	1 (≈ 2.79 µM)
isolate (source animal id): 125	8 (≈ 22.3 µM)
isolate (source animal id): 128	8 (≈ 22.3 µM)
isolate (source animal id): 131	> 8
isolate (source animal id): 135	> 8
isolate (source animal id): 136	8 (≈ 22.3 µM)
isolate (source animal id): 140	0.5 (≈ 1.4 µM)
isolate (source animal id): 144	8 (≈ 22.3 µM)
isolate (source animal id): 146	8 (≈ 22.3 µM)
isolate (source animal id): 150	8 (≈ 22.3 µM)
isolate (source animal id): 151	8 (≈ 22.3 µM)
isolate (source animal id): 153	8 (≈ 22.3 µM)
isolate (source animal id): 155	0.5 (≈ 1.4 µM)
isolate (source animal id): 157	8 (≈ 22.3 µM)
isolate (source animal id): 160	8 (≈ 22.3 µM)
isolate (source animal id): 164	8 (≈ 22.3 µM)
isolate (source animal id): 165	8 (≈ 22.3 µM)
isolate (source animal id): 167	0.5 (≈ 1.4 µM)
isolate (source animal id): 168	1 (≈ 2.79 µM)
isolate (source animal id): 169	0.5 (≈ 1.4 µM)
isolate (source animal id): 170	> 8
isolate (source animal id): 171	0.5 (≈ 1.4 µM)
isolate (source animal id): 172	0.5 (≈ 1.4 µM)
isolate (source animal id): 173	1 (≈ 2.79 µM)
isolate (source animal id): 174	0.5 (≈ 1.4 µM)
isolate (source animal id): 175	0.5 (≈ 1.4 µM)
isolate (source animal id): 176	0.5 (≈ 1.4 µM)
isolate (source animal id): 177	0.5 (≈ 1.4 µM)
isolate (source animal id): 178	0.5 (≈ 1.4 µM)
isolate (source animal id): 179	0.5 (≈ 1.4 µM)
isolate (source animal id): 182	0.5 (≈ 1.4 µM)
isolate (source animal id): 192	0.5 (≈ 1.4 µM)
isolate (source animal id): 193	0.5 (≈ 1.4 µM)
isolate (source animal id): 195	0.5 (≈ 1.4 µM)
isolate (source animal id): 196	0.5 (≈ 1.4 µM)
isolate (source animal id): 197	0.5 (≈ 1.4 µM)
isolate (source animal id): 198	1 (≈ 2.79 µM)
isolate (source animal id): 199	0.5 (≈ 1.4 µM)
isolate (source animal id): 200	0.5 (≈ 1.4 µM)
isolate (source animal id): 201	0.5 (≈ 1.4 µM)
isolate (source animal id): 203	0.5 (≈ 1.4 µM)
isolate (source animal id): 204	0.5 (≈ 1.4 µM)
isolate (source animal id): 205	1 (≈ 2.79 µM)
isolate (source animal id): 206	0.5 (≈ 1.4 µM)
isolate (source animal id): 207	0.5 (≈ 1.4 µM)
isolate (source animal id): 208	0.5 (≈ 1.4 µM)
isolate (source animal id): 209	0.5 (≈ 1.4 µM)
isolate (source animal id): 210	1 (≈ 2.79 µM)
isolate (source animal id): 213	0.5 (≈ 1.4 µM)
isolate (source animal id): 216	0.5 (≈ 1.4 µM)
isolate (source animal id): 223	1 (≈ 2.79 µM)
isolate (source animal id): 227	0.5 (≈ 1.4 µM)
isolate (source animal id): 229	8 (≈ 22.3 µM)
isolate (source animal id): 233	0.5 (≈ 1.4 µM)
isolate (source animal id): 234	8 (≈ 22.3 µM)
isolate (source animal id): 237	8 (≈ 22.3 µM)
isolate (source animal id): 241	8 (≈ 22.3 µM)
isolate (source animal id): 245	0.5 (≈ 1.4 µM)
isolate (source animal id): 247	0.5 (≈ 1.4 µM)
isolate (source animal id): 250	8 (≈ 22.3 µM)
isolate (source animal id): 254	> 8
isolate (source animal id): 255	4 (≈ 11.2 µM)
isolate (source animal id): 258	0.5 (≈ 1.4 µM)
isolate (source animal id): 261	8 (≈ 22.3 µM)
isolate (source animal id): 262	> 8
isolate (source animal id): 269	0.5 (≈ 1.4 µM)
isolate (source animal id): 270	8 (≈ 22.3 µM)
isolate (source animal id): 274	> 8
isolate (source animal id): 275	> 8
isolate (source animal id): 276	0.5 (≈ 1.4 µM)
isolate (source animal id): 277	0.5 (≈ 1.4 µM)
isolate (source animal id): 278	> 8
isolate (source animal id): 279	1 (≈ 2.79 µM)
isolate (source animal id): 280	0.5 (≈ 1.4 µM)
isolate (source animal id): 284	8 (≈ 22.3 µM)
isolate (source animal id): 285	> 8
isolate (source animal id): 287	> 8
isolate (source animal id): 290	> 8
isolate (source animal id): 294	> 8
isolate (source animal id): 295	8 (≈ 22.3 µM)
isolate (source animal id): 296	0.5 (≈ 1.4 µM)
isolate (source animal id): 307	> 8
isolate (source animal id): 310	> 8
isolate (source animal id): 311	8 (≈ 22.3 µM)
isolate (source animal id): 312	8 (≈ 22.3 µM)
isolate (source animal id): 313	> 8
isolate (source animal id): 315	> 8
isolate (source animal id): 316	> 8
